# pEC50: −log10 of the molar value. Like-named read-outs stand apart in the source and are kept apart here.
# System: HCV pseudoparticles (genotype 1a HCV E1 and E2 envelope, H77C isolate)
# Assay: microbe, parasite or virus in culture
# Type: cell-based
# Details: Hepatitis C virus
# [1] = Huh-7, 48 h, read-out: Activity (EC50 class), HCV pseudoparticle infection of Huh7 cells, luciferase 2 days after infection, EC50 expressed as class A/B
# [2] = Huh-7, read-out: Activity (EC50 class), HCV pseudoparticles (genotype 1a, H77C) in Huh7 cells, EC50 expressed as class A/B
# [3] = Huh-7, 48 h, HCV pseudoparticle infection of Huh7 cells, luciferase 2 days after infection, average of duplicates
# [4] = Huh-7, 48 h, read-out: Activity (EC50 class), HCV pseudoparticles, Huh7 cells, luciferase 2 days after infection, average of duplicates
# [5] = Huh-7, 48 h, HCV pseudoparticles (genotype 1a, H77C) in Huh7 cells, average of duplicate, luciferase 2 days after infection
structure (smiles),measurement,setting,value
COC(=O)[C@@H](CCNC(=O)C(=O)NCC1(CN2CCN(C)CC2)CC1)NC(=O)c1ccc(Nc2nc(NC3(c4ccc(Cl)cc4)CC3)nc(OCC(F)(F)F)n2)cc1 [Compound 1388],pEC50,[1],8.00 to 11.00
O=C(NCC[C@H](NC(=O)c1ccc(Nc2nc(NC3(c4ccc(Cl)cc4)CC3)nc(OCC(F)(F)F)n2)cc1)C(=O)O)C(=O)NCc1cc(F)cc(F)c1 [Compound 1192],pEC50,[1],8.00 to 11.00
COC(=O)[C@@H](CCNC(=O)C(=O)NCC1(Cn2ccnc2)CC1)NC(=O)c1ccc(Nc2nc(NC3(c4ccc(Cl)cc4)CC3)nc(OCC(F)(F)F)n2)cc1 [Compound 1385],pEC50,[1],8.00 to 11.00
CC(C)(C)CNC(=O)C(=O)NC[C@H](NC(=O)c1ccc(Nc2nc(NC3(c4ccc(Cl)cc4)CC3)nc(OCC(F)(F)F)n2)cc1)C(=O)O [Compound 1450],pEC50,[1],8.00 to 11.00
COC(=O)[C@H](CCNC(=O)C(=O)NCC1CC1c1cc(F)ccc1F)NC(=O)c1ccc(Nc2nc(NC3(c4ccc(Cl)cc4)CC3)nc(OCC(F)(F)F)n2)cc1 (stereo partly drawn) [Compound 1373],pEC50,[1],8.00 to 11.00
Cc1cc(NC(=O)C(=O)NCCNC(=O)c2ccc(Nc3nc(NC4(c5ccc(Cl)cc5)CC4)nc(OCC(F)(F)F)n3)cc2)no1 [Compound 3372],pEC50,[2],8.00 to 11.00
O=C(Nc1ccc(Oc2nn[nH]n2)cc1)C(=O)NC1CCCC1CNC(=O)c1ccc(Nc2nc(NC3(c4ccc(Cl)cc4)CC3)nc(OCC(F)(F)F)n2)cc1 (stereo not drawn) [Compound 1494],pEC50,[1],8.00 to 11.00
O=C(NCCn1cccn1)C(=O)NC[C@H](NC(=O)c1ccc(Nc2nc(NC3(c4ccc(Cl)cc4)CC3)nc(OCC(F)(F)F)n2)cc1)C(=O)O [Compound 1411],pEC50,[1],8.00 to 11.00
COC(=O)[C@H](CNC(=O)C(=O)Nc1ccc(OC)cc1)NC(=O)c1ccc(Nc2nc(NC3(c4ccc(Cl)cc4)CC3)nc(OCC(F)(F)F)n2)cc1 [Compound 1254],pEC50,[3],9.43
same,pEC50,[1],8.00 to 11.00
COC(=O)[C@H](CNC(=O)C(=O)Nc1ccc(S(C)(=O)=O)cc1)NC(=O)c1ccc(Nc2nc(NC3(c4ccc(Cl)cc4)CC3)nc(OCC(F)(F)F)n2)cc1 [Compound 3105],pEC50,[2],8.00 to 11.00
"COC(=O)[C@H](CNC(=O)C(=O)N(C)C)NC(=O)c1ccc(Nc2nc(NC3(c4ccc(Cl)cc4)CC3)nc(OCC(F)(F)F)n2)cc1 [Compound 1004, (S)-methyl 2-(4-(4-(1-(4-chlorophenyl)cyclopropylamino)-6-(2,2,2-trifluoroethoxy)-1,3,5-triazin-2-ylamino)benzamido)-3-(2-(dimethylamino)-2-oxoacetamido)propanoate]",pEC50,[3],8.32
same,pEC50,[1],8.00 to 11.00
O=C(NCC[C@H](NC(=O)c1ccc(Nc2nc(NC3(c4ccc(Cl)cc4)CC3)nc(OCC(F)(F)F)n2)cc1)C(=O)O)C(=O)Nc1cc(F)c(F)cc1F [Compound 1514],pEC50,[3],10.40
same,pEC50,[1],8.00 to 11.00
COc1ccc(NC(=O)C(=O)NCC(C)(C)CNC(=O)c2ccc(Nc3nc(NC4(c5ccc(Cl)cc5)CC4)nc(OCc4ccc(C(C)C)cc4)n3)cc2F)cc1 [Compound 3828],pEC50,"Huh-7, 48 h, HCV pseudoparticles, Huh7 cells, luciferase 2 days after infection, average of duplicates",9.46
same,pEC50,[4],8.00 to 11.00
COC(=O)[C@H](CCNC(=O)C(=O)NCCn1ccnc1C)NC(=O)c1ccc(Nc2nc(NC3(c4ccc(Cl)cc4)CC3)nc(OCC(F)(F)F)n2)cc1 [Compound 1323],pEC50,[3],8.20
same,pEC50,[1],8.00 to 11.00
CC(C)(CNC(=O)C(N)=O)CNC(=O)c1ccc(Nc2nc(NC3(c4ccccc4F)CC3)nc(OCC(F)(F)F)n2)cc1 [Compound 3243],pEC50,[2],8.00 to 11.00
O=C(NCCCCNC(=O)c1ccc(Nc2nc(NC3(c4ccc(Cl)cc4)CC3)nc(OCC(F)(F)F)n2)cc1)C(=O)N1CCc2ccccc2C1 [Compound 3402],pEC50,[5],9.70
same,pEC50,[2],8.00 to 11.00
COC(=O)[C@H](CCNC(=O)C(=O)NCCc1ccccn1)NC(=O)c1ccc(Nc2nc(NC3(c4ccc(Cl)cc4)CC3)nc(OCC(F)(F)F)n2)cc1 [Compound 1306],pEC50,[1],8.00 to 11.00
CC(CNC(=O)C(=O)Nc1ccccc1)CNC(=O)c1ccc(Nc2nc(NC3(c4ccc(Cl)cc4)CC3)nc(OCC(F)(F)F)n2)cc1 (stereo not drawn) [Compound 3470],pEC50,[2],8.00 to 11.00
Cc1cccc2sc(NC(=O)C(=O)NCC(C)(C)CNC(=O)c3ccc(Nc4nc(NC5(c6ccc(Cl)cc6)CC5)nc(OCC(F)(F)F)n4)cc3)nc12 [Compound 3805],pEC50,[4],8.00 to 11.00
O=C(NC[C@H](NC(=O)c1ccc(Nc2nc(NC3(c4ccc(Cl)cc4)CC3)nc(OCC(F)(F)F)n2)cc1)C(=O)O)C(=O)Nc1ccc(C(F)(F)F)cc1 [Compound 1363],pEC50,[1],8.00 to 11.00
O=C(NCC[C@H](NC(=O)c1ccc(Nc2nc(NC3(c4ccc(Cl)cc4)CC3)nc(OCC(F)(F)F)n2)cc1)C(=O)O)C(=O)Nc1cccc(S(=O)(=O)N2CCCCC2)c1 [Compound 3641],pEC50,[4],8.00 to 11.00
CC(C)(CNC(=O)C(=O)Nc1ccc(-c2ccc(C(=O)O)cc2)cc1)CNC(=O)c1ccc(Nc2nc(NC3(c4ccc(Cl)cc4)CC3)nc(OCC(F)(F)F)n2)cc1 [Compound 1542],pEC50,[1],8.00 to 11.00
O=C(NCC[C@H](NC(=O)c1ccc(Nc2nc(NC3(c4ccc(Cl)cc4)CC3)nc(OCC(F)(F)F)n2)cc1)C(=O)O)C(=O)Nc1cc(F)cc(F)c1 [Compound 1507],pEC50,[1],8.00 to 11.00
CC(=O)c1cccc(NC(=O)C(=O)NCC(C)(C)CNC(=O)c2ccc(Nc3nc(NC4(c5ccc(Cl)cc5)CC4)nc(OCC(F)(F)F)n3)cc2)c1 [Compound 3668],pEC50,[4],8.00 to 11.00
COC(=O)[C@H](CNC(=O)C(=O)NC1CCCCC1c1ccccc1)NC(=O)c1ccc(Nc2nc(NC3(c4ccc(Cl)cc4)CC3)nc(OCC(F)(F)F)n2)cc1 (stereo partly drawn) [Compound 1305],pEC50,[1],8.00 to 11.00
Cn1cncc1NC(=O)C(=O)NCC[C@H](NC(=O)c1ccc(Nc2nc(NC3(c4ccc(Cl)cc4)CC3)nc(OCC(F)(F)F)n2)cc1)C(=O)O [Compound 1267],pEC50,[3],8.28
same,pEC50,[1],8.00 to 11.00
CC(F)Oc1ccc(NC(=O)C(=O)NC[C@H](NC(=O)c2ccc(Nc3nc(NC4(c5ccc(Cl)cc5)CC4)nc(OCC(F)(F)F)n3)cc2)C(=O)O)cc1 (stereo partly drawn) [Compound 3298],pEC50,[2],8.00 to 11.00
Cc1ccc(NC(=O)C(=O)NCC(C)(C)CNC(=O)c2ccc(Nc3nc(NC4(c5ccc(Cl)cc5)CC4)nc(OCc4ccc(OC(F)F)cc4)n3)cc2)cc1 [Compound 3840],pEC50,[4],8.00 to 11.00
CC(C)(CNC(=O)C(=O)Nc1ccc2c(c1)Cc1ccccc1-2)CNC(=O)c1ccc(Nc2nc(NC3(c4ccc(Cl)cc4)CC3)nc(OCC(F)(F)F)n2)cc1 [Compound 1570],pEC50,[3],10.30
same,pEC50,[1],8.00 to 11.00
CC(C)(CNC(=O)C(=O)Nc1ccccc1C#N)CNC(=O)c1ccc(Nc2nc(NC3(c4ccc(Cl)cc4)CC3)nc(OCC(F)(F)F)n2)cc1 [Compound 3385],pEC50,[2],8.00 to 11.00
Cc1cccc(NC(=O)C(=O)NC[C@H](NC(=O)c2ccc(Nc3nc(NC4(c5ccc(Cl)cc5)CC4)nc(OCC(F)(F)F)n3)cc2)C(=O)Cl)c1 [Compound 3743],pEC50,[4],8.00 to 11.00
COc1cc(NC(=O)C(=O)NC[C@H](NC(=O)c2ccc(Nc3nc(NC4(c5ccc(Cl)cc5)CC4)nc(OCC(F)(F)F)n3)cc2)C(=O)O)ccn1 [Compound 1348],pEC50,[3],9.30
same,pEC50,[1],8.00 to 11.00
CC(C)(CNC(=O)c1ccc(Nc2nc(NC3(c4ccc(Cl)cc4)CC3)nc(OCC(F)(F)F)n2)cc1)NC(=O)C(=O)Nc1nccs1 [Compound 3437],pEC50,[2],8.00 to 11.00
CC(C)(CNC(=O)C(=O)NS(=O)(=O)c1ccccc1)CNC(=O)c1ccc(Nc2nc(NC3(c4ccc(Cl)cc4)CC3)nc(OCC(F)(F)F)n2)cc1 [Compound 3021],pEC50,[5],9.14
same,pEC50,[2],8.00 to 11.00
O=C(NC/C(=N/C(=O)c1ccc(Nc2nc(NC3(c4ccc(Cl)cc4)CC3)nc(OCC(F)(F)F)n2)cc1)C(=O)O)C(=O)Nc1ccc(N2CCOCC2)cc1 [Compound 3148],pEC50,[2],8.00 to 11.00
